One molecule from paper PMC2941766 (Molecular pharmaceutics, 2010) can be followed below.

Holding throughout (format): in vitro ADME
In one data set the target is T1, UGT1A9 (Homo sapiens, UniProt O60656).
T1 sequence (O60656 26-530): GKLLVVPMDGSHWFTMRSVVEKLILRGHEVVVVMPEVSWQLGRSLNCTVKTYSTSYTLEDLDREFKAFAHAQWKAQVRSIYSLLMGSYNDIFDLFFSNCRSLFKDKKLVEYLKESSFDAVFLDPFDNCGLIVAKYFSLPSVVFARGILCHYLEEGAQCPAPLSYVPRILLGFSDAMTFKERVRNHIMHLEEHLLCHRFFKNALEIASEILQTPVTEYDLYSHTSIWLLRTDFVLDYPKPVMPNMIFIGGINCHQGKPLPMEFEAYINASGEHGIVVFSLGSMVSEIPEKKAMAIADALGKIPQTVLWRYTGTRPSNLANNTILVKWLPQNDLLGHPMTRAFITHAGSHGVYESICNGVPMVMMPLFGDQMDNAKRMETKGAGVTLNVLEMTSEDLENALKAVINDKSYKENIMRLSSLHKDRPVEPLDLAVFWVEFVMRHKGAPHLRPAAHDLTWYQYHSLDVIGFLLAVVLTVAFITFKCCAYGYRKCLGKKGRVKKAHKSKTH
The data set is described as follows: Glucuronidation by expressed human UGT1A9. Particulars: human, 2.5 μM, pH 7.4.

Data set [1] in a line: Glucuronidation by pooled human liver microsomes. Particulars: human, 2.5 μM, pH 7.4. (Liver microsomes are vesicles of endoplasmic reticulum, rich in cytochrome P450 enzymes.)
The nature of data set [2]: Glucuronidation by pooled human intestinal microsomes. Particulars: human, 2.5 μM, pH 7.4.
A further data set deals with T2, UGT2B7 (Homo sapiens, UniProt P16662).
T2 sequence (P16662 24-529): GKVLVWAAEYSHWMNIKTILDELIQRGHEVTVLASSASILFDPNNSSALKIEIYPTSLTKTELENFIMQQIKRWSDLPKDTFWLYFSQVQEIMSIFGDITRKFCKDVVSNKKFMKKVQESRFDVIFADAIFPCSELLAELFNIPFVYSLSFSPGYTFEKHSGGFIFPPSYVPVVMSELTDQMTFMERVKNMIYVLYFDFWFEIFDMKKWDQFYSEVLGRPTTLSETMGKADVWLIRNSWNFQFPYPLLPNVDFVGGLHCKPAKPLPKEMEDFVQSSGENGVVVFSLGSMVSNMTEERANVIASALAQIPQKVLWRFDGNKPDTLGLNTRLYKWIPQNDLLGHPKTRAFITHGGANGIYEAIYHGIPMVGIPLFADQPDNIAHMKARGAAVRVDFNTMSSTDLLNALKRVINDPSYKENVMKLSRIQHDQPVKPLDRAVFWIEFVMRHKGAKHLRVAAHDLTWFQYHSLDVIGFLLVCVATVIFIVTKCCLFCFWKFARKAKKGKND
The data set is described as follows: Glucuronidation by expressed human UGT2B7. Particulars: for glucuronidation rate: human, pH 7.4.

Another data set addresses T3, UGT1A7 (Homo sapiens, UniProt Q9HAW7).
T3 sequence (Q9HAW7 26-530): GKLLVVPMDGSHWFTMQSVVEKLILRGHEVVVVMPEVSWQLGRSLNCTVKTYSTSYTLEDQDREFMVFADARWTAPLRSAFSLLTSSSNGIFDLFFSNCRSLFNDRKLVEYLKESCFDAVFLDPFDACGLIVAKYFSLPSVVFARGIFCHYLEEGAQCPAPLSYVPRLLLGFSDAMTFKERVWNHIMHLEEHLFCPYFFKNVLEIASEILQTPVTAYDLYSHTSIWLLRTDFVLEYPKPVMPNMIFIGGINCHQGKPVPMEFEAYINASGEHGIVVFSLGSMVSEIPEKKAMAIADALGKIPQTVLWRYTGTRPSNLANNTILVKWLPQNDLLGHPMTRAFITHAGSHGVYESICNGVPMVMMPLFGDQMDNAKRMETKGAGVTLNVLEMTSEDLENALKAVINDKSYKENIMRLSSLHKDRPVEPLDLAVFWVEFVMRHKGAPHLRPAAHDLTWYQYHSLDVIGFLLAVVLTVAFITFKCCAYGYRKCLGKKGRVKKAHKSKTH
In words: Glucuronidation by expressed human UGT1A7. To be noted: human, 2.5 μM, pH 7.4.

For the next data set, the target named is T4, UGT1A8 (Homo sapiens, UniProt Q9HAW9).
T4 sequence (Q9HAW9 26-530): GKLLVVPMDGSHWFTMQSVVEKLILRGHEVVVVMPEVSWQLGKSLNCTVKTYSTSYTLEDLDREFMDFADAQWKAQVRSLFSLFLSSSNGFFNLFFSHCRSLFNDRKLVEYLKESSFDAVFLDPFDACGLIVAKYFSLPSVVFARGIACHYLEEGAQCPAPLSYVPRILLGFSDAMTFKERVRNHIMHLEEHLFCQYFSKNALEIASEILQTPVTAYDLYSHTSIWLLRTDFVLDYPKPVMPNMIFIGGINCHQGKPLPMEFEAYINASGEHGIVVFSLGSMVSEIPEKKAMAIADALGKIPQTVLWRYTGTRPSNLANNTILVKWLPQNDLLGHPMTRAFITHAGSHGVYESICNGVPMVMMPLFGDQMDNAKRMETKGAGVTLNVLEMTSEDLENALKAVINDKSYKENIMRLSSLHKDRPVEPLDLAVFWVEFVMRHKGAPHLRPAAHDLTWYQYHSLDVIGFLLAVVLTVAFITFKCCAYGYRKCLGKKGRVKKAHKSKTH
The data set is described as follows: Glucuronidation by expressed human UGT1A8. Particulars: human, 2.5 μM, pH 7.4.

In a further data set the target is T5, UGT1A10 (Homo sapiens, UniProt Q9HAW8).
T5 sequence (Q9HAW8 26-530): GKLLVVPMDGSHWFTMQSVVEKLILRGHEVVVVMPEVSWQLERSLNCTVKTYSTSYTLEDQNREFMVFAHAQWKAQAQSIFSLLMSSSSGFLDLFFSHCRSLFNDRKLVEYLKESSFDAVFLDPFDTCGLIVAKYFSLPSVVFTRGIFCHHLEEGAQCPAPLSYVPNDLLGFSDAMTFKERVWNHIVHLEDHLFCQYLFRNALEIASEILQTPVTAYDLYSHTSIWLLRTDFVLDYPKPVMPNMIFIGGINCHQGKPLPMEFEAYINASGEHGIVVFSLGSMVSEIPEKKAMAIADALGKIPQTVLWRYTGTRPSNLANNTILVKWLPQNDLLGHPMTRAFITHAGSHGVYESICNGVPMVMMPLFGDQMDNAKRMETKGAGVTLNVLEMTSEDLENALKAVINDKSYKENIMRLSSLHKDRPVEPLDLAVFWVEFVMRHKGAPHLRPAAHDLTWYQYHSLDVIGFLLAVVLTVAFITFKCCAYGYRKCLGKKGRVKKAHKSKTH
The data set is described as follows: Glucuronidation by expressed human UGT1A10. Particulars: human, 10 μM, pH 7.4.

Another data set concerns the target T6, UGT1A1 (Homo sapiens, UniProt P22309).
T6 sequence (P22309 26-533): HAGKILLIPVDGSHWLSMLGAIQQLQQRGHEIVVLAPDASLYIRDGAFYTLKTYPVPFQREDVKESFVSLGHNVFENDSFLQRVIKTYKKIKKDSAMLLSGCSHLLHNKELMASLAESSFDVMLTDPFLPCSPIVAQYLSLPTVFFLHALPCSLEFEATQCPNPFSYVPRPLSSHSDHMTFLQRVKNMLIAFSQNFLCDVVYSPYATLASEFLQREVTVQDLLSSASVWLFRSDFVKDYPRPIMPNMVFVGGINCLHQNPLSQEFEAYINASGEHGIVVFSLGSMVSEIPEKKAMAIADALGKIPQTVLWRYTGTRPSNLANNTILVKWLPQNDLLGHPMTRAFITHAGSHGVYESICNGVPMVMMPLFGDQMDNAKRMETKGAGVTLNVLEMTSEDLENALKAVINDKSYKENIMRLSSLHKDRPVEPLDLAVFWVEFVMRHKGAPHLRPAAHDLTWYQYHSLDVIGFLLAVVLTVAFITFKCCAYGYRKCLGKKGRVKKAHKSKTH
The data set is described as follows: Glucuronidation by expressed human UGT1A1. To be noted: human, pH 7.4.

With `O=c1cc(-c2ccccc2)oc2cccc(O)c12` [5-HF, 5-hydroxyflavone], the glucuronidation rate on UGT1A9 is on record as 0.29±0.01 nmol per min per mg of protein; in data set [1], 0.00±0.00 nmol per min per mg of protein; in data set [2], 0.49±0.06 nmol per min per mg of protein; at UGT2B7 (2.5 μM) it was 0.20±0.01 nmol per min per mg of protein; on UGT2B7 (10 μM) it was 0.40±0.02 nmol per min per mg of protein; on UGT2B7 (35 μM), 0.11±0.00 nmol per min per mg of protein. Moreover, the glucuronidation rate is given as 0 nmol per min per mg of protein at UGT1A7; 0.28±0.04 nmol per min per mg of protein on UGT1A8; 0.12±0.01 nmol per min per mg of protein at UGT1A10; 0.28±0.00 nmol per min per mg of protein on UGT1A1 (2.5 μM); 0.28±0.01 nmol per min per mg of protein on UGT1A1 (10 μM); 0.308±0.02 nmol per min per mg of protein at UGT1A1 (35 μM). The “substrate of UGT2B7” value on UGT2B7 is on record as “substrates”.
